By IC50 is commonly meant the concentration at which inhibition is half-maximal. What is called Kd is the constant that tells how readily two partners part at equilibrium. A higher Kd goes with lower affinity.

Drawing on ChEMBL document CHEMBL5532740, “Optimization of a Novel DEL Hit That Binds in the Cbl-b SH2 Domain and Blocks Substrate Binding” (ACS Med Chem Lett, 2024), this text covers IC50 and Kd for 6 compounds.

Assay [1] concerns the target T1, E3 ubiquitin-protein ligase CBL-B (Homo sapiens, UniProt Q13191). The assay can be described thus: Inhibition of active phospho Cbl-b (unknown origin) using His-phospho ZAP70 as substrate incubated for 30 mins followed by substrate addition and measured after 30 mins by TR-FRET assay. Background: TR-FRET usually uses a lanthanide donor and a delayed reading to cut background.

The target in assay [2] is T1, E3 ubiquitin-protein ligase CBL-B. The assay can be described thus: Binding affinity to N-terminal Avi-tagged biotinylated human Cbl-b (40 to 426 residues) expressed in Escherichia coli by SPR assay. A general note: SPR reads the build-up and loss of mass on a sensor chip optically.

T1 sequence (Q13191 whole entry): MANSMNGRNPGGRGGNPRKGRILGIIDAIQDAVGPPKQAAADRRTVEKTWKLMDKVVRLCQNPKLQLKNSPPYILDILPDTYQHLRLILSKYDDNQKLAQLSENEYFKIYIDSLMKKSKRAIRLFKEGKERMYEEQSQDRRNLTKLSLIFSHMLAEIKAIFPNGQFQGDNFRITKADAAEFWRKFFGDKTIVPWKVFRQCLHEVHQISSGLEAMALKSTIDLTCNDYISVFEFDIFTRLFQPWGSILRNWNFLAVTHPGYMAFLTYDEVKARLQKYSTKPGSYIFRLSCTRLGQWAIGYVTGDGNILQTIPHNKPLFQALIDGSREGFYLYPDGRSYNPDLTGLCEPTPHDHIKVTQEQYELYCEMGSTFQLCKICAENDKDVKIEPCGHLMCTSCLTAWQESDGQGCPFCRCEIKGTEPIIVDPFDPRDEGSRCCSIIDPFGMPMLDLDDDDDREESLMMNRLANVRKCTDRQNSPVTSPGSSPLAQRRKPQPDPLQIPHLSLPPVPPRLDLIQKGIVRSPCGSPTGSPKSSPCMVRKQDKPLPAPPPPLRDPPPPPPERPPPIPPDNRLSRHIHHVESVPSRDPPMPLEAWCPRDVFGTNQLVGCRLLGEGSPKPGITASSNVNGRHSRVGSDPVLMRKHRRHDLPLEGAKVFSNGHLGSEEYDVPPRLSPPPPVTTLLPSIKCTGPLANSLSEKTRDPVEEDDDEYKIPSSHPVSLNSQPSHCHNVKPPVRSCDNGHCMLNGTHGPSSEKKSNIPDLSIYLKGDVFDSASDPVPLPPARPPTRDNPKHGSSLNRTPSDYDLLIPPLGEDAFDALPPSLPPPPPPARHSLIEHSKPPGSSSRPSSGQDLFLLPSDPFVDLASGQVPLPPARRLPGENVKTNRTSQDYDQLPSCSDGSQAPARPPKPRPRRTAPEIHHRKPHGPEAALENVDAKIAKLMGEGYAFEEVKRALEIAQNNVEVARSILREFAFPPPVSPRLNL

With `CC[C@H]1C(=O)N(C)[C@@H](c2cc([N+](=O)[O-])cc(OC)c2OCC(=O)O)N1C(=O)Cc1c(OC)ccc2c1Oc1c(ccc(OC)c1CC(=O)O)C2(C)C`, in assay [1], the IC50 amounted to 770 nM.

For the compound `CCOC(=O)COc1c(OC)cc([N+](=O)[O-])cc1[C@@H]1N(C)C(=O)[C@H](C)N1C(=O)Cc1c(OC)ccc2c1Oc1c(ccc(OC)c1CC(=O)O)C2(C)C`, half-maximal inhibition in assay [1] (IC50) was put at 890 nM.

Compound `COc1ccc2c(c1CC(=O)O)Oc1c(ccc(OC)c1CC(=O)N1[C@@H](C)C(=O)N(C)[C@@H]1c1cc([N+](=O)[O-])cc(OC)c1OCC(=O)O)C2(C)C` showed a dissociation constant (Kd) in assay [2] of 44000 nM. The compound also showed a concentration for half-maximal inhibition (IC50) in assay [1] above 20000 nM.

Consider `CCOc1c(OC)cc([N+](=O)[O-])cc1[C@@H]1N(C)C(=O)[C@H](C)N1C(=O)Cc1c(OC)ccc2c1Oc1c(ccc(OC)c1C(=O)NS(C)(=O)=O)C2(C)C`, for which, in assay [1], the IC50 is above 20000 nM.

In assay [2], `COc1ccc2c(c1CC(=O)O)Oc1c(ccc(OC)c1CC(=O)N1[C@H](c3cc([N+](=O)[O-])cc(OC)c3OCC(=O)O)N(C)C(=O)[C@@H]1C)C2(C)C` yielded a Kd of 280 nM. The same compound registered an IC50 in assay [1] of 340 nM.

For `CCN1C(=O)[C@H](C)N(C(=O)Cc2c(OC)ccc3c2Oc2c(ccc(OC)c2CC(=O)O)C3(C)C)[C@@H]1c1cc([N+](=O)[O-])cc(OC)c1OCC(=O)O`, the IC50 in assay [1] was 300 nM. This counts as sub-micromolar.
